{"source": "patent US20050124618A1", "about": "“Methods of modulating angiogenesis and cancer cell proliferation” (priority 2003, published 2005)", "key": {"20-HETE": {"test_system": "20-HETE", "assay": "20-HETE formation in electrically stimulated skeletal (TA) muscle of rats", "assay_type": "in vivo, rat", "method": "Experimental protocols and tissue preparation: After a 24-h recovery period, the implanted stimulator was activated by momentary closure of the magnetic reed switch using a small hand-held magnet. […] Contractions of the extensor digitorum longus (EDL) and tibialis anterior (TA) muscles were automatically initiated at 9 AM each day and sustained for 8 h/day over a consecutive 7-day period. At the end of the stimulation period, the animals were euthanized by an overdose of pentobarbital sodium (100 mg/kg ip), and the EDL and TA muscles were harvested for analysis as previously described (Greene A S et al., Hypertension 15: 779-783, 1990; and Parmentier J H et al., Hypertension 37: 623-629, 2001).\nThe rats were divided in four groups. […] This dose was chosen based on our previous results (Kehl F et al., Am J Physiol Heart Circ Physiol 282: H1556-H1565, 2002).\nTo determine the contribution of VEGF to the angiogenesis induced by electrical stimulation, six rats in group 3 were treated with 3 mg/kg ip injections of a monoclonal VEGF-neutralizing antibody (Texas Biotechnology; Houston, Tex.) during the period of electrical stimulation. The protocol for administration of VEGF-neutralizing antibody was modified from Zheng W et al. (Circ Res 85: 192-198, 1999), and this dose was based on our previous results (Amaral S L et al., Microcirculation 8: 57-67, 2001). After the stimulation period was started, the rats received intraperitoneal injections on days 3, 5, and 7 (0.6 mg/100 g).\nMuscle preparations for measurement of 20-HETE: The 100-200 mg of frozen TA muscle were homogenized in a solution containing 1 ml of acidified water and 50 μl of an internal standard, WIT-002, which was synthesized and kindly provided by Taisho Pharmaceutical. Ethyl acetate (3 ml, Fisher Scientific; Pittsburgh, Pa.) was added to the mixture and gently vortexed. The homogenized tissues were then centrifuged at 3,000 revolutions/min for 2 min. With the use of a glass Pasteur pipet, the top layer was removed and transferred to a sterile glass vial, and the samples were dried under nitrogen and stored at −80° C.\nLabeling of samples and fluorescent detection of 20-HETE: Detection of 20-HETE was performed as previously described (Ma Y H et al., Am J Physiol Regul Integr Comp Physiol 267: R579-R589, 1994). Samples, which were extracted and dried under argon, were resuspended in 20 μl of acetonitrile containing 36.4 mM 2-(2,3-napthalimino)ethyl trifluoromethanesulfonate, and N,N-diisopropylethylamine (10 μl) was added as a catalyst. The sample was reacted for 30 min at room temperature, dried under argon, resuspended in 1 ml of 40% acetonitrile-water, and applied to a Sep-Pak Vac column. The column was washed with 6 ml of 50% acetonitrile-water solution to remove unreacted dye, eluted with 500 μl of ethyl acetate, dried under argon, and resuspended in 100 μl of the HPLC mobile phase [methanol-water-acetic acid, 82:18:0.1 (vol/vol)]. A 25-μl aliquot of the derivatized sample was separated on a 4.6×250-mm Symmetry C18 reverse-phase HPLC column (Waters) isocratically at a rate of 1.3 ml/min using methanol-water-acetic acid (82:18:0.1 (vol/vol)) as the mobile phase. Fluorescence intensity monitored using an in-line fluorescence detector (model number L-7480, Hitachi; Naperville, Ill.) at medium gain sensitivity. The amount of 20-HETE in the sample was determined by comparing the area of the 20-HETE peak with that of the internal standard (WIT-002)."}, "9L gliosarcoma tumors": {"test_system": "9L gliosarcoma tumors", "assay": "Ki-67 immunohistochemistry of 9L tumor sections", "assay_type": "in vivo, rat", "settings": "chronic treatment with HET0016", "method": "Assessment of tumor volume: The formalin fixed brains were placed in Coronal rat brain matrix, and sliced into 3-mm blocks. These blocks were then embedded in paraffin and […] thick sections were prepared. Sections prepared for H&E staining were placed onto uncoated slides. Sections for immunohistochemistry were placed onto positively charged super frosted slides. The serial sections were either stained with H&E for to assess the size of the tumor or immunohistochemically process for Ki-67 antigen to assess for the degree of proliferation.\nThe sections prepared for immunohistochemistry were deparaffinized by boiling the sections in a citric buffer (pH 6.0) for 10 minutes on a hot plate. The sections were cooled to room temperature, placed in a blocking buffer [2% normal serum, 1% BSA in PBS] for 1 hr, rinsed twice in a wash buffer [0.05 Tween-20 in PBS], blocked with hydrogen peroxide for 10 min and rinsed in wash buffer. The sections were then incubated for 30 min with rabbit polyclonal anti-ki67 antibody (Abcam Inc., Cambridge, Mass.; 1:200 dilution in 1.0% BSA in PBS). The sections were rinsed in wash buffer, incubated with biotinylated Goat anti-rabbit IgG (Vector Laboratories, Inc., Burlingame, Calif.; 1:500 in PBS) for 30 min, and rewashed. […]"}}, "note": "Entries after “also recorded” stand apart in the source; their conditions may differ.", "data": [{"smiles": "CCCCc1ccc(N=CNO)c(C)c1", "note": "[HET0016, N-hydroxy-N′-(4-butyl-2 methylphenyl) formamidine]", "values": [{"measurement": "effect on the increase of 20-HETE formation induced by electrical stimulation", "setting": "20-HETE; 7 days of electrical stimulation, chronic treatment", "value": "completely blocked"}, {"measurement": "20-HETE formation in skeletal muscle, unstimulated side", "setting": "20-HETE; rats treated 7 days, TA muscle", "value": "110.26±28.36", "unit": "ng/g muscle"}, {"measurement": "20-HETE formation in skeletal muscle, stimulated side", "setting": "20-HETE; rats treated 7 days, TA muscle, 7 days electrical stimulation", "value": "102.1±22.3", "unit": "ng/g muscle"}, {"measurement": "effect on basal formation of 20-HETE in skeletal muscle", "setting": "20-HETE; treatment for 7 days", "value": "did not change the basal formation"}, {"measurement": "number of mitotic (Ki67-positive) cells in the 9L tumor", "setting": "9L gliosarcoma tumors", "value": "reduction in mitosis; also recorded: greatly reduced the number of mitotic cells"}]}]}
